# Test results as given in US7879852B2, “Melanocortin receptor agonists” (LG Life Sciences Ltd., priority 2006, dated 2011).
# pEC50: −log10 of the molar value.
# Biological target: T1, human melanocortin receptor 4 (MC4R) (Homo sapiens, UniProt P32245)
# T1 construct: expressed in transfected cells; grown with 200 ug/ml Geneticin
# Experiment: Luciferase assay
# Assay type: cell-based
# Details: agonistic activity at MC4R (Table 18); patent does not state whether luciferase or cAMP assay
# Method: Cell lines expressing human melanocortin receptor 4 (MC4R) were dissociated from tissue culture dishes by rinsing with Ca^++, Mg^++ free DPBS, treated with 1× Trypsin/EDTA solution for 1 min at 37° C., and resuspended with DMRM (GIBCO-BRL) supplemented with 10% FBS. The cells were counted and diluted with DMEM supplemented with 10% FBS and 200 ug/ml of Geneticin to […]. 90 ul of cell suspension was plated onto each well of 96-well black and clear bottom culture plates (Costar). After the incubation for 24 h in the atmosphere of 6% CO2 at 37° C., 10 ul of NDP-MSH and test compounds diluted in DMSO were added to each well. The final DMSO concentration was 1%. After 4 h of incubation in the atmosphere of 6% CO2 at 37° C., 50 ul of Bright-Glo (Promega) was added to each well. Luciferase activity was measured by using L-Max luminometer (Molecular Device). The amount of luciferase activity induced by treatment with NDP-MSH was defined as 100% to obtain the relative efficacy of test compounds. The EC0.5 MSH was defined as the concentration of test compounds that results in half maximal activity of NDP-MSH. The EC50 was defined as the concentration of test compound that results in half maximal activity of its own.
# T1 sequence (P32245 whole entry): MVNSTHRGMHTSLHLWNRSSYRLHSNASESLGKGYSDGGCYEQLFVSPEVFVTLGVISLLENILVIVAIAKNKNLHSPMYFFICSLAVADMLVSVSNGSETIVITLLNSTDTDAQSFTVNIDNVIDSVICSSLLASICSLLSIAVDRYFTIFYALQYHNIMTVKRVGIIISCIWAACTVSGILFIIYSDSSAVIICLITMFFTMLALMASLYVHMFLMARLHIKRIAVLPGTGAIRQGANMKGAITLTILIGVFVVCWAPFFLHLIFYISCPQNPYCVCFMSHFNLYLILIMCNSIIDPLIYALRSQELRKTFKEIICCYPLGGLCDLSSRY
row,Compound,pEC50
1,"CC1(C)CCC(N(C(=O)C(C)(C)/C=N/O)[C@H]2CCN(C(=O)[C@@H]3CN(C(C)(C)C)C[C@H]3c3ccc(Cl)cc3)C2)CC1 [Example C3, (3E)-N-[(3S)-1-{[(3S,4R)-1-tert-butyl-4-(4-chlorophenyl)pyrrolidine-3-yl]carbonyl}pyrrolidine-3-yl]-N-(4,4-dimethylcyclohexyl)-3-(hydroxyimino)-2,2-dimethylpropaneamide]",7.82
2,"CC1(C)CCC(N(C(=O)C(C)(C)C)[C@H]2CCN(C(=O)[C@@H]3CN(C(C)(C)C)C[C@H]3c3ccc(Cl)cc3)C2)CC1 [Example A9, N-[(3S,4R)-1-{[(3S,4R)-1-T-butyl-4-(4-chlorophenyl)pyrrolidine-3-yl]carbonyl}pyrrolidine-3-yl]-N-(4,4-dimethylcyclohexyl)-2,2-dimethylpropaneamide]",7.35
3,"CN(C)C(=O)[C@@H]1C[C@H](N(C(=O)C(C)(C)C)C2CCC(C)(C)CC2)CN1C(=O)[C@@H]1CN(C(C)(C)C)C[C@H]1c1ccc(F)cc1F [Example A1, (4S)-1-{[(3S,4R)-1-tert-butyl-4-(2,4-difluorophenyl)pyrrolidine-3-yl]carbonyl}-4-[(4,4-dimethylcyclohexyl)(2,2-dimethylpropanoyl)amino]-N,N-dimethyl-L-prolineamide]",7.89
4,"CCN(C)C(=O)[C@@H]1C[C@H](N(C(=O)C(C)(C)CO)C2CCC(C)(C)CC2)CN1C(=O)[C@@H]1CN(C(C)(C)C)C[C@H]1c1ccc(Cl)cc1 [Example A4, (4S)-1-{[(3S,4R)-1-tert-butyl-4-(4-chlorophenyl)pyrrolidine-3-yl]carbonyl}-4-[(4,4-dimethylcyclohexyl)(3-hydroxy-2,2-dimethylpropanoyl)amino]-N-ethyl-N-methyl-L-prolineamide]",8.52
5,CCN(C)C(=O)[C@@H]1C[C@H](N(C(=O)C(C)(C)C)C2CCC(F)(F)CC2)CN1C(=O)[C@@H]1CN(C(C)(C)C)C[C@H]1c1ccc(Cl)cc1 [Example A75],7.10
6,"COCC(C)(C)C(=O)N(C1CCC(C)(C)CC1)[C@H]1CCN(C(=O)[C@@H]2CN(C(C)(C)C)C[C@H]2c2ccc(Cl)cc2)C1 [Example C2, N-[(3S)-1-{[(3S,4R)-1-tert-butyl-4-(4-chlorophenyl)pyrrolidine-3-yl]carbonyl}pyrrolidine-3-yl]-N-(4,4-dimethylcyclohexyl)-3-methoxy-2,2-dimethylpropaneamide]",7.96
7,"CN(C)C(=O)[C@@H]1C[C@H](N(C(=O)C(C)(C)C)C2CCC(F)(F)CC2)CN1C(=O)[C@@H]1CN(C(C)(C)C)C[C@H]1c1ccc(Cl)cc1 [Example A5, (4S)-1-{[(3S,4R)-1-tert-butyl-4-(4-chlorophenyl)pyrrolidine-3-yl]carbonyl}-4-[(4,4-difluorocyclohexyl)(2,2-dimethylpropanoyl)amino]-N,N-dimethyl-L-prolineamide]",7.48
8,CC1CCC(N(C(=O)C(C)(C)C)C2CC(C(N)=S)N(C(=O)C3CN(C(C)(C)C)CC3c3ccc(F)cc3F)C2)CC1 (stereo not drawn) [Example B28],7.85
9,"CCNC(=O)[C@@H]1C[C@H](N(C(=O)[C@@H]2CCCO2)C2CCC(C)(C)CC2)CN1C(=O)[C@@H]1CN(C(C)(C)C)C[C@H]1c1ccc(Cl)cc1 [Example A3, (4S)-1-{[(3S,4R)-1-tert-butyl-4-(4-chlorophenyl)pyrrolidine-3-yl]carbonyl}-4-{(4,4-dimethylcyclohexyl)[(2S)-tetrahydrofuran-2-ylcarbonyl]amino}-N-ethyl-L-prolineamide]",7.92
10,CC(C)C(=O)N(C1CCC(C)(C)CC1)C1CC(C=NO)N(C(=O)C2CN(C(C)(C)C)CC2c2ccc(F)cc2F)C1 (stereo not drawn) [Example B33],7.19
11,"(4S)-1-[(3S,4R)-1-tert-butyl-4-(4-chlorophenyl)pyrrolidine-3-yl]carbonyl)-4-{(4,4-dimethylcyclohexyl)[(2S)-tetrahydrofuran-2-ylcarbonyl]amino}-N,N-ethylmethyl-L-prolineamide [Example A2]",7.80
12,"S-(3-{[(3S,5S)-1-{[(3S,4R)-1-tert-butyl-4-(2,4-difluorophenyl)pyrrolidine-3-yl]carbonyl}-5-{[ethyl(methyl)amino]carbonyl}pyrrolidine-3-yl](4,4-dimethylcyclohexyl)amino}-2,2-dimethyl-3-oxopropyl)ethanethioate [Example C13]",7.40
13,"CC1(C)CCC(N(C(=O)C(C)(C)C(N)=O)[C@H]2CCN(C(=O)C3CN(C(C)(C)C)C[C@H]3c3ccc(Cl)cc3)C2)CC1 (stereo partly drawn) [Example C1, N-[(3S)-1-{[(3S,4R)-1-tert-butyl-4-(4-chlorophenyl)pyrrolidine-3-yl]carbonyl}pyrrolidine-3-yl]-N-(4,4-dimethylcyclohexyl)-2,2-dimethylmaloneamide]",7.42
14,"CC(=O)C(C)(C)C(=O)N(C1CCC(C)(C)CC1)[C@H]1CCN(C(=O)[C@@H]2CN(C(C)(C)C)C[C@H]2c2ccc(Cl)cc2)C1 [Example C5, N-[(3S)-1-{[(3S,4R)-1-tertbutyl-4-(4-chlorophenyl)pyrrolidine-3-yl]carbonyl}pyrrolidine-3-yl]-N-(4,4-dimethylcyclohexyl)-2,2-dimethyl-3-oxobutaneamide]",8.22
15,CC1(C)CCC(N(C(=O)C(C)(C)C)[C@H]2C[C@@H](C(=O)Nc3ccccc3)N(C(=O)[C@@H]3CN(C(C)(C)C)C[C@H]3c3ccc(Cl)cc3)C2)CC1 [Example A99],7.16
16,"CN1C[C@@H](C(=O)N2C[C@@H](N(C(=O)C(C)(C)C)[C@H]3CC[C@@H](C)CC3)C[C@H]2C(N)=O)[C@H](c2ccc(Cl)cc2)C1 [Example A7, (4S)-1-{[(3S,4R)-4-(4-Chlorophenyl)-1-methylpyrrolidine-3-yl]carbonyl}-4-[(2,2-dimethylpropanoyl)(cis-4-methylcyclohexyl)amino]-L-prolineamide]",7.62
17,CCN(C)C(=O)[C@@H]1C[C@H](N(C(=O)[C@@H]2CCCO2)C2CCC3(CC2)CC3)CN1C(=O)[C@@H]1CN(C(C)(C)C)C[C@H]1c1ccc(Cl)cc1 [Example A90],7.52
18,CC(=O)N(C1CCC(C)(C)CC1)[C@H]1C[C@@H](C(=O)N2CCOCC2)N(C(=O)[C@@H]2CN(C(C)(C)C)C[C@H]2c2ccc(Cl)cc2)C1 [Example A96],7.42

# The next lines start with the values.
row,pEC50,Compound
1,7.68,CC1CCC(N(C(=O)C2=CCOC2)C2CCN(C(=O)C3CNCC3c3ccc(Cl)cc3)C2)CC1 (stereo not drawn) [Example E1-23]
2,7.02,"CN(C)C(=O)[C@@H]1C[C@H](N(C(=O)C(C)(C)C(N)=O)C2CCC(C)(C)CC2)CN1C(=O)C1CN(C(C)(C)C)C[C@H]1c1ccc(Cl)cc1 (stereo partly drawn) [Example C12, N-{(3S,5S)-1-{[(3S,4R)-1-tert-butyl-4-(4-chlorophenyl)pyrrolidine-3-yl]carbonyl}-5-[(dimethylamino)carbonyl]pyrrolidine-3-yl}-N-(4,4-dimethylcyclohexyl)-2,2-dimethylmaloneamide]"
3,7.33,"CN(C)C(=O)[C@@H]1C[C@H](N(C(=O)C(C)(C)C)c2ccc(F)cc2F)CN1C(=O)[C@@H]1CN(C(C)(C)C)C[C@H]1c1ccc(Cl)cc1 [Example D1, (4S)-1-{[(3S,4R)-1-tert-butyl-4-(4-chlorophenyl)pyrrolidine-3-yl]carbonyl}-4-[(2,4-difluorophenyl)(2,2-dimethylpropanoyl)amino]-N,N-dimethyl-L-prolineamide]"
4,8.15,CC1(C)CCC(N(C(=O)C(C)(C)CO)[C@H]2CCN(C(=O)[C@@H]3CN(C(N)=O)C[C@H]3c3ccc(Cl)cc3)C2)CC1 [Example E2-2]
5,7.64,CC1CCC(N(C(=O)c2ccoc2)C2CCN(C(=O)C3CNCC3c3ccc(Cl)cc3)C2)CC1 (stereo not drawn) [Example E1-14]
6,8.40,"CCNC(=N)N1C[C@@H](C(=O)N2CC[C@H](N(C(=O)C(C)C)[C@H]3CC[C@@H](C)CC3)C2)[C@H](c2ccc(Cl)cc2)C1 [Example E10, N-[(3S)-1-({(3S,4R)-4-(4-chlorophenyl)-1-[(ethylamino)(imino)methyl]pyrrolidine-3-yl}carbonyl)pyrrolidine-3-yl]2-methyl-N-(cis-4-methylcyclohexyl)propaneamide]"
7,7.39,"CCN(C)C(=O)[C@@H]1C[C@H](N(C(=O)C(C)(C)COC)C2CCC(F)(F)CC2)CN1C(=O)C1CN(C(C)(C)C)C[C@H]1c1ccc(Cl)cc1 (stereo partly drawn) [Example C9, N-[(3S)-1-{[(3S,4R)-1-tert-butyl-4-(4-chlorophenyl)pyrrolidine-3-yl]carbonyl}pyrrolidine-3-yl]-N-[(4,4-difluorocyclohexyl)(3-methoxy-2,2-dimethylpropanoyl)amino]-N-ethyl-N-methyl-L-prolineamide]"
8,8.30,"CCN(C)C(=O)[C@@H]1C[C@H](N(C(=O)[C@@H]2CCCO2)C2CCC(C)(C)CC2)CN1C(=O)[C@@H]1CN(C2CCOCC2)C[C@H]1c1ccc(Cl)cc1 [Example E5-2, (4S)-1-{[(3S,4R)-4-(4-chlorophenyl)-1-(tetrahydro-2H-pyran-4-yl)pyrrolidine-3-yl]carbonyl}-4-{(4,4-dimethylcyclohexyl)[(2S)-tetrahydrofuran-2-ylcarbonyl]amino}-N-ethyl-N-methyl-L-prolineamide]"
9,7.66,COCC(C)(C)C(=O)N(C1CCC(F)(F)CC1)[C@H]1C[C@@H](C(=O)N(C)C)N(C(=O)[C@@H]2CN(C(C)(C)C)C[C@H]2c2ccc(Cl)cc2)C1 [Example C24]
